{"source": "patent US12643924B2", "about": "“Cardiac-specific targeting-peptide (CTP), compositions, and uses thereof” (University of Pittsburgh—Of the Commonwealth System of …, priority 2018, dated 2026)", "key": {"[1]": {"tested_on": "H9C2 cells", "experiment": "Alanine scan: percentage of Cy5.5 positive H9C2 cells by FACS", "type": "cell-based, rat", "conditions": "percentage of Cy5.5 positive H9C2 cells normalized to non-mutated peptide (SEQ ID NO: 1); Cy5.5-conjugated peptides, 30 minutes at 37° C.", "method": "(§1) Variants of SEQ ID NO: 1 in which every amino acid was systematically mutated to alanine were synthesized in the University of Pittsburgh Peptide Synthesis Facility. Each variant was conjugated to the Cyanine5.5 fluorescent dye (Cy5.5). The rat cardiomyocyte cell line H9C2 (ATCC, catalogue #: CRL-1446) was incubated for 30 minutes at 37° C. with Dimethyl sulfoxide (DMSO) as a control, or the alanine peptide variants. Cells were then washed 3 times with PBS, trypsinized and resuspended, stained for live/dead cells, and then FACS sorted for Cy5.5 positive cells.\nThe percentage of Cy5.5 positive H9C2 cells, normalized to the non-mutated peptide (SEQ ID NO: 1), for each peptide variant is summarized in Table 2 below."}, "[2]": {"tested_on": "H9C2 cells", "experiment": "Fluorescence activated cell sorting of H9C2 cells after 30 min incubation with 10 uM peptide (median Cy5.5)", "type": "cell-based, rat", "conditions": "for Corrected Median Cy5.5 / Raw Median Cy5.5: H9C2 cells, 30 min incubation, 10 uM peptide, single replicates; for Corrected Median Cy5.5: corrected for peptide fluorescence; for Average Correction: average of corrected median Cy5.5, H9C2 cells, FIG. 1C", "method": "as §1"}}, "note": "Where no end group is shown, it is not given here."}
{"sequence": "APAHLSSQYSRT (also: Cy5.5 conjugate, site not given here) [W3A, alanine variant of CTP, Cy5.5 conjugated]", "values": [{"measurement": "% transduction of H9C2 Cells", "setting": "[1]", "result": 75.81, "unit": "%"}, {"measurement": "Corrected Median Cy5.5", "setting": "[2]; listed as W3A_001", "result": 5369.7}, {"measurement": "Corrected Median Cy5.5", "setting": "[2]; listed as W3A_002", "result": 5369.7}, {"measurement": "Corrected Median Cy5.5", "setting": "[2]; listed as W3A_003", "result": 5258.1}, {"measurement": "Raw Median Cy5.5", "setting": "[2]; listed as W3A_001", "result": 4862}, {"measurement": "Raw Median Cy5.5", "setting": "[2]; listed as W3A_002", "result": 4862}, {"measurement": "Raw Median Cy5.5", "setting": "[2]; listed as W3A_003", "result": 4761}, {"measurement": "Average Correction", "setting": "[2]", "result": 5332.5}]}
{"sequence": "APWALSSQYSRT (also: Cy5.5 conjugate, site not given here) [H4A, alanine variant of CTP, Cy5.5 conjugated]", "values": [{"measurement": "% transduction of H9C2 Cells", "setting": "[1]", "result": 55.05, "unit": "%"}, {"measurement": "Corrected Median Cy5.5", "setting": "[2]; listed as H4A_001", "result": 7666.1}, {"measurement": "Corrected Median Cy5.5", "setting": "[2]; listed as H4A_002", "result": 8011.3}, {"measurement": "Corrected Median Cy5.5", "setting": "[2]; listed as H4A_003", "result": 6934.0}, {"measurement": "Raw Median Cy5.5", "setting": "[2]; listed as H4A_001", "result": 7173}, {"measurement": "Raw Median Cy5.5", "setting": "[2]; listed as H4A_002", "result": 7496}, {"measurement": "Raw Median Cy5.5", "setting": "[2]; listed as H4A_003", "result": 6488}, {"measurement": "Average Correction", "setting": "[2]", "result": 7537.1}]}
{"sequence": "APWHASSQYSRT (also: Cy5.5 conjugate, site not given here) [L5A, alanine variant of CTP, Cy5.5 conjugated]", "values": [{"measurement": "% transduction of H9C2 Cells", "setting": "[1]", "result": 87.81, "unit": "%"}, {"measurement": "Corrected Median Cy5.5", "setting": "[2]; listed as L5A_001", "result": 5077.5}, {"measurement": "Corrected Median Cy5.5", "setting": "[2]; listed as L5A_002", "result": 5522.0}, {"measurement": "Corrected Median Cy5.5", "setting": "[2]; listed as L5A_003", "result": 5370.0}, {"measurement": "Raw Median Cy5.5", "setting": "[2]; listed as L5A_001", "result": 3107}, {"measurement": "Raw Median Cy5.5", "setting": "[2]; listed as L5A_002", "result": 3379}, {"measurement": "Raw Median Cy5.5", "setting": "[2]; listed as L5A_003", "result": 3286}, {"measurement": "Average Correction", "setting": "[2]", "result": 5323.2}]}
{"sequence": "APWHLASQYSRT (also: Cy5.5 conjugate, site not given here) [S6A, alanine variant of CTP, Cy5.5 conjugated]", "values": [{"measurement": "% transduction of H9C2 Cells", "setting": "[1]", "result": 107.21, "unit": "%"}, {"measurement": "Corrected Median Cy5.5", "setting": "[2]; listed as S6A_001", "result": 17793.0}, {"measurement": "Corrected Median Cy5.5", "setting": "[2]; listed as S6A_002", "result": 18393.5}, {"measurement": "Corrected Median Cy5.5", "setting": "[2]; listed as S6A_003", "result": 20420.3}, {"measurement": "Raw Median Cy5.5", "setting": "[2]; listed as S6A_001", "result": 22342}, {"measurement": "Raw Median Cy5.5", "setting": "[2]; listed as S6A_002", "result": 23096}, {"measurement": "Raw Median Cy5.5", "setting": "[2]; listed as S6A_003", "result": 25641}, {"measurement": "Average Correction", "setting": "[2]", "result": 18868.9}]}
{"sequence": "APWHLSAQYSRT (also: Cy5.5 conjugate, site not given here) [S7A, alanine variant of CTP, Cy5.5 conjugated]", "values": [{"measurement": "% transduction of H9C2 Cells", "setting": "[1]", "result": 54.32, "unit": "%"}, {"measurement": "Corrected Median Cy5.5", "setting": "[2]; listed as S7A_001", "result": 21208.1}, {"measurement": "Corrected Median Cy5.5", "setting": "[2]; listed as S7A_002", "result": 23475.6}, {"measurement": "Corrected Median Cy5.5", "setting": "[2]; listed as S7A_003", "result": 23755.1}, {"measurement": "Raw Median Cy5.5", "setting": "[2]; listed as S7A_001", "result": 20184}, {"measurement": "Raw Median Cy5.5", "setting": "[2]; listed as S7A_002", "result": 22342}, {"measurement": "Raw Median Cy5.5", "setting": "[2]; listed as S7A_003", "result": 22608}, {"measurement": "Average Correction", "setting": "[2]", "result": 22813.0}]}
{"sequence": "APWHLSSAYSRT (also: Cy5.5 conjugate, site not given here) [Q8A, alanine variant of CTP, Cy5.5 conjugated]", "values": [{"measurement": "% transduction of H9C2 Cells", "setting": "[1]", "result": 67.35, "unit": "%"}, {"measurement": "Corrected Median Cy5.5", "setting": "[2]; listed as Q8A_001", "result": 9725.5}, {"measurement": "Corrected Median Cy5.5", "setting": "[2]; listed as Q8A_002", "result": 9339.0}, {"measurement": "Corrected Median Cy5.5", "setting": "[2]; listed as Q8A_003", "result": 9049.4}, {"measurement": "Raw Median Cy5.5", "setting": "[2]; listed as Q8A_001", "result": 10041}, {"measurement": "Raw Median Cy5.5", "setting": "[2]; listed as Q8A_002", "result": 9642}, {"measurement": "Raw Median Cy5.5", "setting": "[2]; listed as Q8A_003", "result": 9343}, {"measurement": "Average Correction", "setting": "[2]", "result": 9371.3}]}
{"sequence": "APWHLSSQASRT (also: Cy5.5 conjugate, site not given here) [Y9A, alanine variant of CTP, Cy5.5 conjugated]", "values": [{"measurement": "% transduction of H9C2 Cells", "setting": "[1]", "result": 107, "unit": "%"}, {"measurement": "Corrected Median Cy5.5", "setting": "[2]; listed as Y9A_001", "result": 5365.7}, {"measurement": "Corrected Median Cy5.5", "setting": "[2]; listed as Y9A_002", "result": 5445.9}, {"measurement": "Corrected Median Cy5.5", "setting": "[2]; listed as Y9A_003", "result": 5586.0}, {"measurement": "Raw Median Cy5.5", "setting": "[2]; listed as Y9A_001", "result": 5018}, {"measurement": "Raw Median Cy5.5", "setting": "[2]; listed as Y9A_002", "result": 5093}, {"measurement": "Raw Median Cy5.5", "setting": "[2]; listed as Y9A_003", "result": 5224}, {"measurement": "Average Correction", "setting": "[2]", "result": 5465.9}]}
{"sequence": "APWHLSSQYART (also: Cy5.5 conjugate, site not given here) [S10A, alanine variant of CTP, Cy5.5 conjugated]", "values": [{"measurement": "% transduction of H9C2 Cells", "setting": "[1]", "result": 30.61, "unit": "%"}, {"measurement": "Corrected Median Cy5.5", "setting": "[2]; listed as S10A_001", "result": 3707.6}, {"measurement": "Corrected Median Cy5.5", "setting": "[2]; listed as S10A_002", "result": 3658.1}, {"measurement": "Corrected Median Cy5.5", "setting": "[2]; listed as S10A_003", "result": 3959.6}, {"measurement": "Raw Median Cy5.5", "setting": "[2]; listed as S10A_001", "result": 1722}, {"measurement": "Raw Median Cy5.5", "setting": "[2]; listed as S10A_002", "result": 1699}, {"measurement": "Raw Median Cy5.5", "setting": "[2]; listed as S10A_003", "result": 1839}, {"measurement": "Average Correction", "setting": "[2]", "result": 3775.1}]}
{"sequence": "APWHLSSQYSAT (also: Cy5.5 conjugate, site not given here) [R11A, alanine variant of CTP, Cy5.5 conjugated]", "values": [{"measurement": "% transduction of H9C2 Cells", "setting": "[1]", "result": 32.75, "unit": "%"}, {"measurement": "Corrected Median Cy5.5", "setting": "[2]; listed as R11A_001", "result": 10237.9}, {"measurement": "Corrected Median Cy5.5", "setting": "[2]; listed as R11A_002", "result": 10010.7}, {"measurement": "Corrected Median Cy5.5", "setting": "[2]; listed as R11A_003", "result": 10518.6}, {"measurement": "Raw Median Cy5.5", "setting": "[2]; listed as R11A_001", "result": 9555}, {"measurement": "Raw Median Cy5.5", "setting": "[2]; listed as R11A_002", "result": 9343}, {"measurement": "Raw Median Cy5.5", "setting": "[2]; listed as R11A_003", "result": 9817}, {"measurement": "Average Correction", "setting": "[2]", "result": 10255.7}]}
{"sequence": "APWHLSSQYSRA (also: Cy5.5 conjugate, site not given here) [T12A, alanine variant of CTP, Cy5.5 conjugated]", "values": [{"measurement": "% transduction of H9C2 Cells", "setting": "[1]", "result": 90.33, "unit": "%"}, {"measurement": "Corrected Median Cy5.5", "setting": "[2]; listed as T12A_001", "result": 14307.2}, {"measurement": "Corrected Median Cy5.5", "setting": "[2]; listed as T12A_002", "result": 15682.3}, {"measurement": "Corrected Median Cy5.5", "setting": "[2]; listed as T12A_003", "result": 15498.6}, {"measurement": "Raw Median Cy5.5", "setting": "[2]; listed as T12A_001", "result": 18458}, {"measurement": "Raw Median Cy5.5", "setting": "[2]; listed as T12A_002", "result": 20232}, {"measurement": "Raw Median Cy5.5", "setting": "[2]; listed as T12A_003", "result": 19995}, {"measurement": "Average Correction", "setting": "[2]", "result": 15162.7}]}
